Reference: PubChem BioAssay (NCI)
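Abbreviation: GI50, concentration required for 50% inhibition of growth. TGI denotes the concentration required for complete inhibition of growth.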

How the values were obtained:
Test in all cases: DTP human tumour cell line panel, 384-well format
[1] = system: MDA-MB-231 breast
[2] = system: NCI-H226 lung
[3] = system: SF-268 CNS
[4] = system: OVCAR-3 ovarian
[5] = system: SNB-75 CNS
[6] = system: MDA-MB-468 breast
[7] = system: OVCAR-8 ovarian
[8] = system: HOP-62 NSCLC
[9] = system: SW-620 colon
[10] = system: IGROV1 ovarian
[11] = system: ACHN renal
[12] = system: SK-MEL-2 melanoma
[13] = system: CCRF-CEM leukemia

Row | Compound | GI50 [1] [µM] | TGI [1] [µM] | GI50 [2] [µM] | TGI [2] [µM] | GI50 [3] [µM] | TGI [3] [µM] | GI50 [4] [µM] | TGI [4] [µM] | GI50 [5] [µM] | TGI [5] [µM] | GI50 [6] [µM] | TGI [6] [µM] | GI50 [7] [µM] | TGI [7] [µM] | GI50 [8] [µM] | TGI [8] [µM] | GI50 [9] [µM] | TGI [9] [µM] | GI50 [10] [µM] | TGI [10] [µM] | other results
1 | CNCc1ccc(-c2[nH]c3cc(F)cc4c3c2CCNC4=O)cc1 | 8.58 | 21.8 | 7.9 | 21.9 | 14.1 | 29.1 | 16 | 31 | 13.2 | 26.4 | 4.13 | 11.5 | 10.4 | 23.7 | 9.39 | 23.4 | 7.46 | 23.6 | 10.4 | 25.4 | GI50 [11]: 11.5 µM; TGI [11]: 28.6 µM; GI50 [12]: 11.9 µM; TGI [12]: 24.3 µM; GI50 [13]: 3.68 µM; TGI [13]: 13.1 µM
2 | N#CCC1(n2cc(-c3ncnc4[nH]ccc34)cn2)CN(C2CCN(C(=O)c3ccnc(C(F)(F)F)c3F)CC2)C1 | 45.8 | > 100 | 33.5 | > 82.9 | > 39.8 | > 69.3 | > 71.5 | > 100 | > 58 | > 100 | 17.6 | 50.5 | > 100 | > 100 | > 68.2 | > 100 | > 61.1 | > 100 | > 76 | > 100 | GI50 [11]: > 64.7 µM; TGI [11]: > 100 µM; GI50 [12]: > 100 µM; TGI [12]: > 100 µM; GI50 [13]: 20.6 µM; TGI [13]: 44.9 µM
